Legend:
[1] = system: neutrophil accumulation in BALF; assay: LPS-induced neutrophil accumulation in mice; format: in vivo, Balb/c mice; details: mice; for Neutrophil numbers in BALF / Neutrophil numbers in BALF, % inhibition: 0.2 mg/mL, LPS
Method: Non-fasted Balb/c mice were […] by the intra tracheal route with either vehicle, or the test substance at the indicated times (within the range 2-8 h) before stimulation of the inflammatory response by application of an LPS challenge. At T=0, mice were placed into an exposure chamber and exposed to LPS (7.0 mL, 0.5 mg/mL solution in PBS for 30 min). After a further 8 h the animals were anesthetized, their tracheas cannulated and BALF extracted by infusing and then withdrawing from their lungs 1.0 mL of PBS via the tracheal catheter. Total and differential white cell counts in the BALF samples were measured using a Neubaur haemocytometer. Cytospin smears of the BALF samples were prepared by centrifugation at 200 rpm for 5 min at RT and stained using a DiffQuik stain system (Dade Behring). Cells were counted using oil immersion microscopy. Data for neutrophil numbers in BAL are shown as mean±S.E.M. (standard error of the mean). The percentage inhibition of neutrophil accumulation was calculated for each treatment relative to vehicle treatment.

PBMCs (mitosis) = assay: Cell mitosis assay in PHA-treated PBMCs; format: cell-based, human
Method: Peripheral blood mononucleocytes (PBMCs) from healthy subjects were separated from whole blood (Quintiles, London, UK) using a density gradient (Histopaquee-1077, Sigma-Aldrich, Poole, UK). The PBMCs (3 million cells per sample) were subsequently treated with 2% PHA (Sigma-Aldrich, Poole, UK) for 48 h, followed by a 20 h exposure to varying concentrations of test compounds. At 2 h before collection, PBMCs were treated with demecolcine (0.1 μg/mL; Life Technologies, Paisley, UK,) to arrest cells in metaphase.

[2] = system: sputum macrophages from COPD patients; assay: Cytokine production in LPS-treated sputum macrophages from COPD patients; format: cell-based, human
Method: Patients with COPD inhaled a nebulised solution of 3% (w/v) hypertonic saline using an ultrasonic nebuliser (Devilbiss, Carthage, Mo.) with tidal breathing for 5 min. This procedure was repeated a maximum of three times until enough sputum was obtained. The sputum samples were homogenized and mixed vigorously using a vortex mixer in 0.02% v/v dithiothreitol (DTT) solution. The samples were re-suspended in PBS (40 mL) followed by centrifugation at 1500 rpm at 4° C. for 10 min to obtain sputum cell pellets. The pellets were washed with PBS (40 mL). The sputum cells were then re-suspended in 4 mL macrophage serum-free medium (macrophage-SFM, Life technologies, containing 20 U/mL penicillin, 0.02 mg/mL streptomycin and 5 μg/mL amphotericin B) and seeded on high bound 96-well plate, followed by incubation for 1 h at 37° C. and at 5% CO2 to allow the macrophages to attach to the bottom of the plate. The cells on the plate were washed with fresh macrophage-SFM (200 μL/well) to remove neutrophils and other contaminated cells. The adherent cells (mainly sputum macrophages) on the plate were used for further analysis. Sputum inductions were conducted in Quintiles Drug Research Unit at Guys Hospital and ethics approval and written informed consent was obtained by Quintiles.
Where appropriate, 1 μL of a solution containing either the test compound or reference article at the stated concentrations (either 0.1 μg/mL, 0.01 μg/mL, or 0.001 μg/mL) or alternatively 1 μL of DMSO as the vehicle control was added to each well (200 μL in media) and the cells were incubated for 2 h. The cells were stimulated with LPS solution (50 μL, final concentration: 1 μg/mL) and incubated for 18 h at 37° C. and 5% CO2. The supernatant was then collected and kept at −80° C. Suitable luminex kits were used to measure the selected analytes. After thawing the supernatant, the magnetic antibody beads were multiplexed and incubated in a 96-well plate with standard, background solution or the appropriate volume of sample overnight with shaking at 4° C. After washing twice with 200 μL of wash buffer provided by the kit per well using a magnetic plate washer, the beads were incubated for 1 h at RT with the biotin conjugated antibody solution provided by the kit with shaking. Streptavidin solution was added for 30 min with shaking at RT. After washing with 200 μL wash buffer per well, the beads were resuspended in sheath fluid (150 μL) and analyzed immediately. The level of each analyte in the supernatant was calculated using Xcel Fit software with a 4 or 5-parameter equation using each standard curve. The inhibitions of each cytokine production were calculated at each concentration by comparison with vehicle control.

CXCL1 (KC) in BALF = assay: Cigarette smoke model: CXCL1 (KC) in BALF; format: in vivo, A/J mice; details: mice; for CXCL1 in BALF / CXCL1 in BALF, % inhibition: tobacco smoke
Method: A/J mice (males, 5 weeks old) were exposed to cigarette smoke (4% cigarette smoke, diluted with air) for 30 min/day for 11 days using a Tobacco Smoke Inhalation Experiment System for small animals (Model SIS-CS; Sibata Scientific Technology, Tokyo, Japan). Test substances were administered intra-nasally (35 μL of solution in 10% DMSO/PBS) once daily for 3 days after the final cigarette smoke exposure. At 12 h after the last […], each of the animals was anesthetized, the trachea cannulated and bronchoalveolar lavage fluid (BALF) was collected. The numbers of alveolar macrophages and neutrophils were determined by FACS analysis (EPICS® ALTRA II, Beckman Coulter, Inc., Fullerton, Calif., USA) using anti-mouse MOMA2 antibody (macrophage) or anti-mouse 7/4 antibody (neutrophil). BALF was centrifuged and the supernatant was collected. The level of keratinocyte chemoattractant (KC; CXCL1) in BALF was quantitated using a Quantikine® mouse KC ELISA kit (R&D systems, Inc., Minneapolis, Minn., USA).

## Cc1ccc(-n2nc(C(C)(C)C)cc2NC(=O)Nc2ccc(OCc3ccnc(Nc4cnccn4)c3)c3ccccc23)cc1 [Example 1, 1-(3-(tert-Butyl)-1-(p-tolyl)-1H-pyrazol-5-yl)-3-(4-((2-(pyrazin-2-ylamino)pyridin-4-yl)methoxy)naphthalen-1-yl)urea]
[1]; pre-dose time 2 hr
  Neutrophil numbers in BALF: 492000 mL⁻¹
  Neutrophil numbers in BALF, % inhibition: 67.8%
[1]; pre-dose time 8 hr
  Neutrophil numbers in BALF: 759000 mL⁻¹
  Neutrophil numbers in BALF, % inhibition: 50.3%
[1]
  LPS-induced neutrophil accumulation (in words): inhibition
  duration of action (time course experiment): long duration of action
PBMCs (mitosis)
  impact on cell division (mitosis) compared with Reference Compound: markedly less activity
PBMCs (mitosis); Homo sapiens, PBMC, 5 μg/mL, PBMC, Table 5A, read-out: Mitosis Assay % Inhibition at 5 μg/mL in PBMC Cells
  inhibition at 5 µg/mL: 29.9%
[2]
  inhibition of pro-inflammatory cytokine production in sputum macrophage compared with fluticasone propionate: higher efficacy
[2]; Homo sapiens, Macrophage, IL-6, sputum macrophages from COPD patients
  IC50: 28 nM
[2]; Homo sapiens, Macrophage, read-out: E-max (maximum inhibition), IL-6 production in LPS-treated sputum macrophages
  inhibition at 0.1 µg/mL: 60%
CXCL1 (KC) in BALF; 0.07 μg/mouse
  CXCL1 in BALF: 14.47 pg/mL
  CXCL1 in BALF, % inhibition: 14.6%
CXCL1 (KC) in BALF; 0.7 μg/mouse
  CXCL1 in BALF: 12.49 pg/mL
  CXCL1 in BALF, % inhibition: 34.9%
CXCL1 (KC) in BALF; 7 μg/mouse
  CXCL1 in BALF: 9.03 pg/mL
  CXCL1 in BALF, % inhibition: 70.3%
CXCL1 (KC) in BALF
  tobacco smoke induced CXCL1 (KC) production in BALF (in words): inhibited

— US11142515B2, “Pyrazolyl-ureas as kinase inhibitors” (RESPIVERT LIMITED, priority 2014, dated 2021)
